Measured values as given in US20020137929A1, “1 - (3-heterocyclylphenyl) isothiourea, -isourea, -guanidine and -amidine herbicidal agents” (Intellectual Property Department, BASF Aktiengesellschaft, priority 1998, published 2002).

Columns and labels:
[1] = system: CYPIR (Rice Flatsedge); experiment: Preemergence weed control under flooded paddy conditions; assay type: in vivo, Cyperus iria; settings: rated 3-4 weeks after treatment
In short: (§1)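 Seeds or propagules sown in top 0.5 cm of silt loam soil, flooded 1.5 to 3 cm above surface throughout. Compound in 50/50 v/v aqueous/acetone pipetted into flood water at about 0.0313 to 0.500 kg/ha. Visual 0-9 rating versus control after three to four weeks in greenhouse.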

[2] = system: ECHORC (Watergrass (Calif.)); experiment: as above; assay type: in vivo, Echinochloa oryzoides; settings: rated 3-4 weeks after treatment
In short: as §1

[3] = system: IPOHE (Morningglory, Ivyleaf); experiment: Postemergence herbicidal evaluation; assay type: in vivo, Ipomoea hederacea; settings: postemergence
In short: (§2)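 First, seedlings were raised for around two weeks. Next, test material in 50/50 acetone/water containing 0.5% TWEEN 20 was sprayed through a nozzle at 40 psi, equivalent to about 0.0156–0.500 kg/ha. Finally, after 4–5 weeks in the greenhouse, plants were rated 0–9.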

[4] = system: ECHCG (Barnyardgrass); experiment: Preemergence herbicidal evaluation; assay type: in vivo, Echinochloa crus-galli; settings: rated 4-5 weeks after treatment
In short: (§3)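 Scores (0–9) reflect visual comparison with control plants for stand, vigor, malformation, size and chlorosis. Compound was applied to the soil after sowing, before emergence, as an aqueous acetone spray (about 0.0156–0.500 kg/ha), and cups were kept in a greenhouse for 4–5 weeks.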

[5] = system: SETVI (Foxtail, Green); experiment: Postemergence herbicidal evaluation; assay type: in vivo, Setaria viridis; settings: postemergence
In short: as §2

[6] = system: GALAP (Galium); experiment: Postemergence herbicidal evaluation; assay type: in vivo, Galium aparine; settings: postemergence
In short: as §2

[7] = system: SETVI (Foxtail, Green); experiment: Preemergence herbicidal evaluation; assay type: in vivo, Setaria viridis; settings: rated 4-5 weeks after treatment
In short: as §3

[8] = system: IPOHE (Morningglory, Ivyleaf); experiment: Preemergence herbicidal evaluation; assay type: in vivo, Ipomoea hederacea; settings: rated 4-5 weeks after treatment
In short: as §3

[9] = system: MOOVA (Monochoria); experiment: Preemergence weed control under flooded paddy conditions; assay type: in vivo, Monochoria vaginalis; settings: rated 3-4 weeks after treatment
In short: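 Flooded-pot preemergence screen with silt loam and seeds in the upper 0.5 cm. Dose about 0.0313 to 0.500 kg/ha, delivered into flood water; visual 0-9 score after 3 to 4 weeks.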

[10] = system: ZEAMX (Corn, Field); experiment: Preemergence herbicidal evaluation; assay type: in vivo, Zea mays; settings: rated 4-5 weeks after treatment
In short: as §3

[11] = system: TRZAWR (Wheat, Winter, cv Riband); experiment: Postemergence herbicidal evaluation; assay type: in vivo, Triticum aestivum; settings: postemergence
In short: as §2

[12] = system: ABUTH (Velvetleaf); experiment: Preemergence herbicidal evaluation; assay type: in vivo, Abutilon theophrasti; settings: rated 4-5 weeks after treatment
In short: as §3

CCOC(=O)CN1C(=O)C(SC)SC1=Nc1cc(-n2c(=O)cc(C(F)(F)F)n(C)c2=O)c(F)cc1Cl (stereo not drawn) [Compound 125, Ethyl 2-{{2-chloro-5-[3,6-dihydro-3-methyl-2,6-dioxo-4-(trifluoromethyl)-1(2H)-pyrimidinyl]-4-fluorophenyl}imino}-5-(methylthio)-4-oxo-3-thiazolidineacetate]
herbicidal effect rating, CYPIR ([1]; 0.0313 kg/ha): 3.0 | herbicidal effect rating, CYPIR ([1]; 0.0625 kg/ha): 6.0 | herbicidal effect rating, CYPIR ([1]; 0.1250 kg/ha): 7.0 | herbicidal effect rating, CYPIR ([1]; 0.2500 kg/ha): 9.0 | herbicidal effect rating, ECHORC ([2]; 0.0313 kg/ha): 2.0 | herbicidal effect rating, ECHORC ([2]; 0.0625 kg/ha): 4.0 | herbicidal effect rating, ECHORC ([2]; 0.1250 kg/ha): 7.0 | herbicidal effect rating, ECHORC ([2]; 0.2500 kg/ha): 7.0 | herbicidal rating IPOHE ([3]; rate 0.0156 kg/ha): 9.0 | herbicidal rating IPOHE ([3]; rate 0.0313 kg/ha): 9.0 | herbicidal rating IPOHE ([3]; rate 0.0625 kg/ha): 9.0 | Preemergence herbicidal rating ECHCG ([4]; rate 0.0156 kg/ha): 0.0 | Preemergence herbicidal rating ECHCG ([4]; rate 0.0313 kg/ha): 0.0 | Preemergence herbicidal rating ECHCG ([4]; rate 0.0625 kg/ha): 0.0 | Preemergence herbicidal rating ECHCG ([4]; rate 0.1250 kg/ha): 3.0 | Preemergence herbicidal rating ECHCG ([4]; rate 0.2500 kg/ha): 7.0 | Preemergence herbicidal rating ECHCG ([4]; rate 0.5000 kg/ha): 9.0 | herbicidal rating SETVI ([5]; rate 0.0156 kg/ha): 2.0 | herbicidal rating SETVI ([5]; rate 0.0313 kg/ha): 5.0 | herbicidal rating SETVI ([5]; rate 0.0625 kg/ha): 5.0 | herbicidal rating GALAP ([6]; rate 0.0156 kg/ha): 1.0 | herbicidal rating GALAP ([6]; rate 0.0313 kg/ha): 2.0 | herbicidal rating GALAP ([6]; rate 0.0625 kg/ha): 5.0 | Preemergence herbicidal rating SETVI ([7]; rate 0.0156 kg/ha): 0.0 | Preemergence herbicidal rating SETVI ([7]; rate 0.0313 kg/ha): 0.0 | Preemergence herbicidal rating SETVI ([7]; rate 0.0625 kg/ha): 5.0 | Preemergence herbicidal rating SETVI ([7]; rate 0.1250 kg/ha): 9.0 | Preemergence herbicidal rating SETVI ([7]; rate 0.2500 kg/ha): 9.0 | Preemergence herbicidal rating SETVI ([7]; rate 0.5000 kg/ha): 9.0 | Preemergence herbicidal rating IPOHE ([8]; rate 0.0156 kg/ha): 0.0 | Preemergence herbicidal rating IPOHE ([8]; rate 0.0313 kg/ha): 0.0 | Preemergence herbicidal rating IPOHE ([8]; rate 0.0625 kg/ha): 4.0 | Preemergence herbicidal rating IPOHE ([8]; rate 0.1250 kg/ha): 4.0 | Preemergence herbicidal rating IPOHE ([8]; rate 0.2500 kg/ha): 9.0 | Preemergence herbicidal rating IPOHE ([8]; rate 0.5000 kg/ha): 9.0 | herbicidal effect rating, MOOVA ([9]; 0.0313 kg/ha): 5.0 | herbicidal effect rating, MOOVA ([9]; 0.0625 kg/ha): 7.0 | herbicidal effect rating, MOOVA ([9]; 0.1250 kg/ha): 7.0 | herbicidal effect rating, MOOVA ([9]; 0.2500 kg/ha): 9.0 | Preemergence herbicidal rating ZEAMX ([10]; rate 0.0156 kg/ha): 0.0 | Preemergence herbicidal rating ZEAMX ([10]; rate 0.0313 kg/ha): 0.0 | Preemergence herbicidal rating ZEAMX ([10]; rate 0.0625 kg/ha): 3.0 | Preemergence herbicidal rating ZEAMX ([10]; rate 0.1250 kg/ha): 6.0 | Preemergence herbicidal rating ZEAMX ([10]; rate 0.2500 kg/ha): 7.0 | Preemergence herbicidal rating ZEAMX ([10]; rate 0.5000 kg/ha): 7.0 | herbicidal rating TRZAWR ([11]; rate 0.0156 kg/ha): 4.3 | herbicidal rating TRZAWR ([11]; rate 0.0313 kg/ha): 5.0 | herbicidal rating TRZAWR ([11]; rate 0.0625 kg/ha): 5.0 | Preemergence herbicidal rating ABUTH ([12]; rate 0.0156 kg/ha): 0.0 | Preemergence herbicidal rating ABUTH ([12]; rate 0.0313 kg/ha): 2.0 | Preemergence herbicidal rating ABUTH ([12]; rate 0.0625 kg/ha): 4.0 | Preemergence herbicidal rating ABUTH ([12]; rate 0.1250 kg/ha): 6.0 | Preemergence herbicidal rating ABUTH ([12]; rate 0.2500 kg/ha): 9.0 | Preemergence herbicidal rating ABUTH ([12]; rate 0.5000 kg/ha): 9.0
